Test results: ChEMBL document CHEMBL1135039, “A novel synthesis of 2-arylpyrrolo[1,2-a]pyrimid-7-ones and their structure-activity relationships as potent GnRH receptor antagonists” (Bioorg Med Chem Lett, 2002)

Molecular target: T1, Gonadotropin-releasing hormone receptor (Homo sapiens, UniProt P30968)
T1 sequence (P30968 whole entry): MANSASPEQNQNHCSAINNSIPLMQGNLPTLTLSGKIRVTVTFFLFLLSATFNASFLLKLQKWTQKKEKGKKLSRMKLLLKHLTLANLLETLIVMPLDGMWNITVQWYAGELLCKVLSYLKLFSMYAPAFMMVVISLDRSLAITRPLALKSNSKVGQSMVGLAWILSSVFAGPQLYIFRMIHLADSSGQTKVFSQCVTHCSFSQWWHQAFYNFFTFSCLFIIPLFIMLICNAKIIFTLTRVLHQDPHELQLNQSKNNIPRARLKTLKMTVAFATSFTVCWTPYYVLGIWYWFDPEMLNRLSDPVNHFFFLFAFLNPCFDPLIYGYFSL
Assay: Binding affinity to human gonadotropin-releasing hormone (hGnRH) receptor expressed in HEK293 cells using des-Gly10[125I-Tyr,5DLeu,6NMeLeu,7Pro9-NEt]GnRH radioligand
Format: cell-based

| Ki [nM] | SMILES |
| --- | --- |
| 2.7 | CCCC(=O)Nc1ccc(-c2cc3n(Cc4ccccc4F)cc(C(=O)OC(CC)CC)c(=O)n3c2CN(C)CCc2ccccn2)cc1 |
| 400 | CCOC(=O)c1cn(Cc2ccccc2F)c2cc(-c3ccc(OC)cc3)c(CN(C)Cc3ccccc3)n2c1=O |
| 17 | CCCC(=O)Nc1ccc(-c2cc3n(Cc4ccccc4F)cc(C(=O)NCCCc4ccccc4)c(=O)n3c2CN(C)Cc2ccccc2)cc1 |
| 1.2 | CCCC(=O)Nc1ccc(-c2cc3n(Cc4ccccc4F)cc(C(=O)OCC)c(=O)n3c2CN(C)CCc2ccccn2)cc1 |
| 5.8 | CCCC(=O)Nc1ccc(-c2cc3n(Cc4ccccc4F)cc(C(=O)OC(CC)CC)c(=O)n3c2CN(C)CCN(CC)CC)cc1 |
| 55 | CCOC(=O)c1cn(Cc2ccccc2F)c2cc(-c3ccc(OC)cc3)c(CN(C)CCc3ccccn3)n2c1=O |
| 44 | CCOC(=O)c1cn(Cc2ccccc2F)c2cc(-c3ccc(NC(=O)C(C)C)cc3)c(CN(C)Cc3ccccc3)n2c1=O |
| 9.2 | CCCC(=O)Nc1ccc(-c2cc3n(Cc4ccccc4F)cc(C(=O)NC4CCCC4)c(=O)n3c2CN(C)CCc2ccccn2)cc1 |
| 270 | CN(CCc1ccccn1)Cc1c(-c2ccc([N+](=O)[O-])cc2)cc2n(Cc3ccccc3F)cc(C3=NC(C)(C)CO3)c(=O)n12 |
| 440 | CCCCNC(=O)c1cn(Cc2ccccc2F)c2cc(-c3ccc(NC(=O)CCC)cc3)c(CN(C)CCN(CC)CC)n2c1=O |
| 14 | CCC(CC)OC(=O)c1cn(Cc2ccccc2F)c2cc(-c3ccc(OC)cc3)c(CN(C)CCc3ccccn3)n2c1=O |
| 21 | CCCC(=O)Nc1ccc(-c2cc3n(Cc4ccccc4F)cc(C(=O)NC(CC)CC)c(=O)n3c2CN(C)CCc2ccccn2)cc1 |
| 64 | CN(CCc1ccccn1)Cc1c(-c2ccc([N+](=O)[O-])cc2)cc2n(Cc3ccccc3F)cc(-c3nc(C(C)(C)C)co3)c(=O)n12 |
| 32 | CCCC(=O)Nc1ccc(-c2cc3n(Cc4ccccc4F)cc(C(=O)NC4CCCCC4)c(=O)n3c2CN(C)CCc2ccccn2)cc1 |
| 154 | CCCCNC(=O)c1cn(Cc2ccccc2F)c2cc(-c3ccc(NC(=O)CCC)cc3)c(CN(C)Cc3ccccc3)n2c1=O |
| 630 | CCCC(=O)Nc1ccc(-c2cc3n(Cc4ccccc4F)cc(C(=O)NCCOC)c(=O)n3c2CN(C)CCc2ccccn2)cc1 |
| 10 | CCCCNC(=O)c1cn(Cc2ccccc2F)c2cc(-c3ccc(NC(=O)CCC)cc3)c(CN(C)CCc3ccccn3)n2c1=O |
| 4 | CCC(CC)OC(=O)c1cn(Cc2ccccc2F)c2cc(-c3ccc(NC(C)=O)cc3)c(CN(C)Cc3ccccc3)n2c1=O |
| 62 | CCC(CC)OC(=O)c1cn(Cc2ccccc2F)c2cc(-c3ccc(OC)cc3)c(CN(C)Cc3ccccc3)n2c1=O |
| 130 | CCCC(=O)Nc1ccc(-c2cc3n(Cc4ccccc4F)cc(C(=O)OC(CC)CC)c(=O)n3c2CN(C)C)cc1 |
| 450 | CCOC(=O)c1cn(Cc2ccccc2F)c2cc(-c3ccc([N+](=O)[O-])cc3)c(CN(C)Cc3ccccc3)n2c1=O |
| 42 | CCOC(=O)c1cn(Cc2ccccc2F)c2cc(-c3ccc(NC(C)=O)cc3)c(CN(C)Cc3ccccc3)n2c1=O |
| 3.3 | CCCCCCNC(=O)c1cn(Cc2ccccc2F)c2cc(-c3ccc(NC(=O)CCC)cc3)c(CN(C)CCc3ccccn3)n2c1=O |
| 100 | CCC(CC)OC(=O)c1cn(Cc2ccccc2F)c2cc(-c3ccc(N)cc3)c(CN(C)Cc3ccccc3)n2c1=O |
| 14 | CCOC(=O)c1cn(Cc2ccccc2F)c2cc(-c3ccc(NC(=O)C(C)C)cc3)c(CN(C)CCc3ccccn3)n2c1=O |
| 1.1 | CCCC(=O)Nc1ccc(-c2cc3n(Cc4ccccc4F)cc(C(=O)NCCCc4ccccc4)c(=O)n3c2CN(C)CCc2ccccn2)cc1 |
| 3.8 | CCCC(=O)Nc1ccc(-c2cc3n(Cc4ccccc4F)cc(C(=O)OC(CC)CC)c(=O)n3c2CN(C)Cc2ccccc2)cc1 |
| 190 | CCOC(=O)c1cn(Cc2ccccc2F)c2cc(-c3ccc(N)cc3)c(CN(C)Cc3ccccc3)n2c1=O |
| 2.8 | CCC(CC)OC(=O)c1cn(Cc2ccccc2F)c2cc(-c3ccc(NC(C)=O)cc3)c(CN(C)CCc3ccccn3)n2c1=O |
| 2.1 | CCCC(=O)Nc1ccc(-c2cc3n(Cc4ccccc4F)cc(C(=O)OC(CC)CC)c(=O)n3c2CN(C)CCc2ccccc2)cc1 |
